# Measured values published in ChEMBL document CHEMBL1201862, “PubChem BioAssay data set” (2004).
#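 A five-concentration, 48-hour dose response in 96-well plates underlies each endpoint, interpolated linearly between surrounding concentrations. The concentration for 50% growth inhibition is given as GI50.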 The source made the active and inactive calls. No stated cut-off is given here; in the data, active = GI50 up to about 1.1 µM and inactive = higher.
# How the values were obtained:
# Test in all cases: DTP human tumour cell line panel, 48 h
# [1] = test system: HL-60
# [2] = test system: MCF7
# [3] = test system: SF-539
# [4] = test system: OVCAR-8
# [5] = test system: SNB-19
# [6] = test system: MOLT-4
# [7] = test system: HOP-62
# [8] = test system: PC-3
# [9] = test system: TK-10
# [10] = test system: SF-268
# [11] = test system: SK-MEL-5
# [12] = test system: SK-MEL-28
# [13] = test system: SF-295
# [14] = test system: BT-549
# [15] = test system: RXF 393
# [16] = test system: EKVX
# [17] = test system: NCI-H460
# [18] = test system: SNB-75
# [19] = test system: MDA-MB-231
# [20] = test system: HCT-15
Structure (SMILES),GI50 [1],GI50 [2],GI50 [3],GI50 [4],GI50 [5],GI50 [6],GI50 [7],GI50 [8],GI50 [9],GI50 [10],GI50 [11],GI50 [12],GI50 [13],GI50 [14],GI50 [15],GI50 [16],GI50 [17],GI50 [18],GI50 [19],GI50 [20]
C=C1C(=O)OC2/C=C(CO)/C=C\C3OC3(C)CC(OC(=O)/C(C)=C/COC(C)=O)C12 (stereo unspecified),0.34 µM (active),3.15 µM (inactive),1.96 µM (inactive),2.47 µM (inactive),12.5 µM (inactive),0.802 µM (active),20 µM (inactive),10 µM (inactive),5.16 µM (inactive),4.04 µM (inactive),5 µM (inactive),1.73 µM (inactive),14.8 µM (inactive),1.57 µM (inactive),1.85 µM (inactive),3.78 µM (inactive),5.69 µM (inactive),7.8 µM (inactive),2.66 µM (inactive),1.87 µM
COc1ccc(N2C(=O)c3cccnc3S2(=O)=O)cc1,> 100 µM (inactive),> 100 µM (inactive),> 100 µM (inactive),> 100 µM (inactive),> 100 µM (inactive),> 100 µM (inactive),> 100 µM (inactive),> 100 µM (inactive),,> 100 µM (inactive),,> 100 µM (inactive),> 100 µM (inactive),> 100 µM (inactive),> 100 µM (inactive),> 100 µM (inactive),> 100 µM (inactive),> 100 µM (inactive),> 100 µM (inactive),> 100 µM
CCCCC(=O)OC[n+]1ccc(-c2c(COC(=O)NC(C)C)c(COC(=O)NC(C)C)c3n2CCC3)cc1,25.5 µM (inactive),50.8 µM (inactive),40.4 µM (inactive),> 100 µM (inactive),> 100 µM (inactive),19.5 µM (inactive),> 59.6 µM (inactive),> 84.5 µM (inactive),> 100 µM (inactive),57.9 µM (inactive),> 100 µM (inactive),> 100 µM (inactive),> 76.2 µM (inactive),> 100 µM (inactive),64 µM (inactive),> 100 µM (inactive),42.3 µM (inactive),60.3 µM (inactive),> 67.6 µM (inactive),> 100 µM
COC(OC)(c1ccccc1)C(I)I,2 µM (inactive),18.7 µM (inactive),12.7 µM (inactive),17.9 µM (inactive),35.3 µM (inactive),2.38 µM (inactive),28.1 µM (inactive),14.2 µM (inactive),13.3 µM (inactive),19.3 µM (inactive),8.61 µM (inactive),16.1 µM (inactive),22.8 µM (inactive),11 µM (inactive),2.32 µM (inactive),12 µM (inactive),16.7 µM (inactive),13.1 µM (inactive),18.9 µM (inactive),6.61 µM
N=C(N)N/N=C/c1nc2sccn2c1[N+](=O)[O-],6.58 µM (inactive),18 µM (inactive),36.8 µM (inactive),34 µM (inactive),35.2 µM (inactive),,37.8 µM (inactive),35.2 µM (inactive),85.3 µM (inactive),33.3 µM (inactive),18.7 µM (inactive),> 100 µM (inactive),33.3 µM (inactive),39.9 µM (inactive),8.77 µM (inactive),34.2 µM (inactive),18.5 µM (inactive),11.3 µM (inactive),26.2 µM (inactive),47.8 µM
CCOP1(=O)OCC2OC(n3cnc4c(N)ncnc43)C(O)C2O1.c1ccccc1 (stereo unspecified),> 100 µM (inactive),> 100 µM (inactive),> 100 µM (inactive),> 100 µM (inactive),> 100 µM (inactive),> 100 µM (inactive),> 100 µM (inactive),> 100 µM (inactive),> 100 µM (inactive),> 100 µM (inactive),> 100 µM (inactive),> 100 µM (inactive),> 100 µM (inactive),> 100 µM (inactive),> 100 µM (inactive),> 100 µM (inactive),> 100 µM (inactive),> 100 µM (inactive),> 100 µM (inactive),> 100 µM
N=C1CCCC1C(=S)SCCC(N)=O (stereo unspecified),> 100 µM (inactive),> 100 µM (inactive),> 100 µM (inactive),> 100 µM (inactive),> 100 µM (inactive),> 100 µM (inactive),> 100 µM (inactive),> 100 µM (inactive),> 100 µM (inactive),> 100 µM (inactive),> 100 µM (inactive),> 100 µM (inactive),> 100 µM (inactive),> 100 µM (inactive),> 100 µM (inactive),> 100 µM (inactive),> 100 µM (inactive),61.4 µM (inactive),> 100 µM (inactive),> 100 µM
Cc1cccc(CNNC(=O)c2cc[n+]([BH2-]C#N)cc2)c1,22.5 µM (inactive),36.5 µM (inactive),,24.6 µM (inactive),48.2 µM (inactive),28.2 µM (inactive),38 µM (inactive),31.6 µM (inactive),53.7 µM (inactive),26.7 µM (inactive),17.2 µM (inactive),6.67 µM (inactive),36.1 µM (inactive),42.5 µM (inactive),22.4 µM (inactive),36.4 µM (inactive),36.5 µM (inactive),21.7 µM (inactive),20.6 µM (inactive),21.4 µM
